Measurements taken from paper PMC4038554, “Human CD4^+ T Cell Responses to the Dog Major Allergen Can f 1 and Its Human Homologue Tear Lipocalin Resemble Each Other” (PLoS ONE, 2014).

Tests used:
Experiment in all cases: HLA class II peptide-binding assay (competitive ELISA)
DRB1*0401 = DRB1*0401 (Homo sapiens, UniProt P01903+P01911, A100K/A169T/F76Y/I96L/K127E/L162R/M171V/N62H/P40V/Q125Y/R42H/S133A/S149N/S66Y/V115G/V209L/W38E); conditions: immunopurified HLA, reference peptide IC50 8 nM, ratio ≤20 high affinity, 20–200 moderate affinity
DRB1*0701 = DRB1*0701 (Homo sapiens, UniProt P01903+P01911, A100R/A102G/A103Q/D57E/D86V/E43K/F76Y/K127E/L162R/M171V/P40G/Q125H/Q99D/R33Q/R42Y/R54Q/S133A/S66F/T210M/V115G/Y107V/Y59L/Y89S); conditions: immunopurified HLA, reference peptide IC50 5 nM, ratio ≤20 high affinity, 20–200 moderate affinity
DRB1*1101 = DRB1*1101 (Homo sapiens, UniProt P01903+P01911, A100R/A169T/A87E/I96F/K41T/L162R/M171V/P40S/Q125H/Q178H/Q39Y/Q99D/R42S/S66Y/T262R/V115G/W38E); conditions: immunopurified HLA, reference peptide IC50 50 nM, ratio ≤20 high affinity, 20–200 moderate affinity
DRB1*1301 = DRB1*1301 (Homo sapiens, UniProt P01903+P01911, A100E/A169T/K41T/L162R/M171V/P40S/Q125H/Q178H/Q39Y/Q99D/R42S/S66N/T262R/W38E/Y61H); conditions: immunopurified HLA, reference peptide IC50 208 nM, ratio ≤20 high affinity, 20–200 moderate affinity
DRB3 = tested on: DRB3; design: species or system human; conditions: DRB3; competitive ELISA, immunopurified HLA; reference peptide IC50 60 nM; ratio ≤20 high affinity, 20–200 moderate affinity
DRB1*0301 = DRB1*0301 (Homo sapiens, UniProt P01903+P01911, A100K/A102G/A103R/A169T/F55Y/I96L/K41T/L162R/M171V/P40S/Q125H/Q178H/Q39Y/R42S/S66N/T106N/T262R/W38E/Y61H); conditions: immunopurified HLA, reference peptide IC50 423 nM, ratio ≤20 high affinity, 20–200 moderate affinity
DRB1*0101 = DRB1*0101 (Homo sapiens, UniProt P01903+P01911, A100R/D57E/F55L/F60I/F76Y/I96L/L162R/M171V/P40L/Q125E/R42F/V115G/Y59C); conditions: immunopurified HLA, reference peptide IC50 3 nM, ratio ≤20 high affinity, 20–200 moderate affinity
DRB5 = tested on: DRB5; design: species or system human; conditions: DRB5; competitive ELISA, immunopurified HLA; reference peptide IC50 7 nM; ratio ≤20 high affinity, 20–200 moderate affinity
DRB4 = tested on: DRB4; design: species or system human; conditions: DRB4; competitive ELISA, immunopurified HLA; reference peptide IC50 8 nM; ratio ≤20 high affinity, 20–200 moderate affinity
DRB1*1501 = DRB1*1501 (Homo sapiens, UniProt P01903+P01911); conditions: immunopurified HLA, reference peptide IC50 775 nM, ratio ≤20 high affinity, 20–200 moderate affinity

Sequence	relative binding ratio (IC50 of the test peptide divided by IC50 of the reference peptide) (DRB1*0401)	relative binding ratio (IC50 of the test peptide divided by IC50 of the reference peptide) (DRB1*0701)	relative binding ratio (IC50 of the test peptide divided by IC50 of the reference peptide) (DRB1*1101)	relative binding ratio (IC50 of the test peptide divided by IC50 of the reference peptide) (DRB1*1301)	relative binding ratio (IC50 of the test peptide divided by IC50 of the reference peptide) (DRB3)	relative binding ratio (IC50 of the test peptide divided by IC50 of the reference peptide) (DRB1*0301)	relative binding ratio (IC50 of the test peptide divided by IC50 of the reference peptide) (DRB1*0101)	relative binding ratio (IC50 of the test peptide divided by IC50 of the reference peptide) (DRB5)	relative binding ratio (IC50 of the test peptide divided by IC50 of the reference peptide) (DRB4)	relative binding ratio (IC50 of the test peptide divided by IC50 of the reference peptide) (DRB1*1501)
ALEDFEKAAGARGLST [pTL8, Tear lipocalin peptide p126–141]	85	1 440	> 200	> 481	> 167	> 236	3	22	> 1 179	> 13
ALEDFREFSRAKGLNQ [pC8, Can f 1 peptide p125–140]	189	71	2	245	> 167	> 236	155	101	> 1 179	> 13
EILELAQSETCSPGGQ [pC9, Can f 1 peptide p141–156]	113	230	> 200	> 481	> 167	> 236	54	> 1 443	> 1 179	> 13
ESILIPRQSETCSPGSD [pTL9, Tear lipocalin peptide p142–158]	> 1 260	> 1 874	> 200	> 481	> 167	> 236	569	> 1 443	> 1 179	> 13
GKHVAYIIRSHVKDHY [pTL5, Tear lipocalin peptide p82–97]	120	447	0.3	5	> 167	7	209	1	> 1 179	> 13
GKWYLKAMTADQEVPE [pC1, Can f 1 peptide p15–30]	1	75	70	26	> 167	1	32	72	29	8
GQRVVFIQPSPVRDHY [pC5, Can f 1 peptide p81–96]	101	61	179	33	> 167	28	1	3	1 054	7
GTWYLKAMTVDREFPE [pTL1, Tear lipocalin peptide p15–30]	1	47	67	24	84	10	82	2	1	6
HYIFYCEGELHGKPVR [pTL6, Tear lipocalin peptide p96–111]	3	2 222	3	> 481	> 167	> 236	31	16	121	5
HYILYCEGELHGRQIR [pC6, Can f 1 peptide p95–110]	91	644	78	40	> 167	14	48	50	62	7
